Measurements: ChEMBL document CHEMBL4673346, “Discovery of a benzimidazole series as the first highly potent and selective ACSL1 inhibitors” (Bioorg Med Chem Lett, 2021)
Values after ≈ are worked out from the molar mass of the structure shown.

Legend:
Cytochrome P450 2C9 = Cytochrome P450 2C9 (Homo sapiens, UniProt P11712); experiment: Inhibition of CYP2C9 (unknown origin); type: ADME
[1] = Solubility of compound in pH 6.8; type: physicochemical; settings: buffer
[2] = Metabolic stability in rat liver microsomes assessed as compound remaining after 30 mins; type: ADME, Microsome; settings: read-out: Stabilty
[3] = molecular target: Long-chain-fatty-acid--CoA ligase 4 (Homo sapiens, UniProt O60488); experiment: Inhibition of recombinant human ACSL4 assessed as reduction in […] prodution incubated for 120 mins in presence of Coenzyme A, ATP and MgCl2 by MALDI-TOF MS analysis
[4] = Solubility of compound in pH 6.8 with TCA; type: physicochemical
[5] = Metabolic stability in human liver microsomes assessed as compound remaining after 30 mins; type: ADME, Microsome; settings: read-out: Stabilty
[6] = Total clearance in rat at 0.5 mg/kg, iv; type: ADME, organism-based; settings: in vivo
[7] = Inhibition of insulin/isobutyl-1-methylxanthin/dexamethasone-induced adipocytes differentiation in mouse 3T3-L1 cells by measuring 14C-triglyceride levels incubated for 1 hrs followed by oleic acid addition and measured after 10 mins by microbeta scintillation counting method; type: functional; settings: 3T3-L1, 1.167 h, time 70 min
[8] = molecular target: T1, Long-chain-fatty-acid--CoA ligase 1 (Mus musculus, UniProt P41216); experiment: Inhibition of recombinant mouse ACSL1 assessed as reduction in […] prodution incubated for 90 mins in presence of Coenzyme A, ATP and MgCl2 by MALDI-TOF MS analysis
T1 sequence (P41216 whole entry): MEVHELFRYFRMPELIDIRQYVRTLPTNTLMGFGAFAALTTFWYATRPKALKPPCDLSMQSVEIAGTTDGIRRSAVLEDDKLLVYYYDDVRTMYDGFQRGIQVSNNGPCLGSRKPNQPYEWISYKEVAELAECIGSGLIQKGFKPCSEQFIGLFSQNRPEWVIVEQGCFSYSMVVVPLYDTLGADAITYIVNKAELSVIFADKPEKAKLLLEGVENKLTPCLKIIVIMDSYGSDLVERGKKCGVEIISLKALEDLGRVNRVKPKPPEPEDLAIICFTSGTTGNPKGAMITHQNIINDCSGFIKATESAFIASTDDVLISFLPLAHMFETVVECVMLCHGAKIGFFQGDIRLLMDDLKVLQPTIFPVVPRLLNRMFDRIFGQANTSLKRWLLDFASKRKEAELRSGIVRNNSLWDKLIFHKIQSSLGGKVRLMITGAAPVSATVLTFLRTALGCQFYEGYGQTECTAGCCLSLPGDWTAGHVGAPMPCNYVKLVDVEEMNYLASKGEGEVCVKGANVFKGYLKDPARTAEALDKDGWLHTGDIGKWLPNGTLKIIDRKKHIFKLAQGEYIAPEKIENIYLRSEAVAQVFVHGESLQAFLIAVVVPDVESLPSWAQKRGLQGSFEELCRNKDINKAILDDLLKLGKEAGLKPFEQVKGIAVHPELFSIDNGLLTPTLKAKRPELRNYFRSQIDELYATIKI

[9] = molecular target: Fatty acid CoA ligase Acsl3 (Homo sapiens, UniProt O95573); experiment: Inhibition of recombinant human ACSL3 assessed as reduction in […] prodution incubated for 90 mins in presence of Coenzyme A, ATP and MgCl2 by MALDI-TOF MS analysis
Mus musculus = experiment: In vivo inhibition of ACSL1 in mouse assessed as reduction in acyl-coA production in liver administered orally using palmitic acid as substrate and measured after 17 hrs; type: functional, organism-based; settings: dose 0.3-1 mg/kg
[10] = Oral bioavailability in rat at 1 mg/kg; type: ADME, organism-based; settings: in vivo
[11] = Metabolic stability in mouse liver microsomes assessed as compound remaining after 30 mins; type: ADME, Microsome; settings: read-out: Stabilty
Cytochrome P450 3A4 = Cytochrome P450 3A4 (Homo sapiens, UniProt P08684); experiment: Inhibition of CYP3A4 (unknown origin); type: ADME
[12] = molecular target: T2, Long-chain-fatty-acid--CoA ligase 5 (Homo sapiens, UniProt Q9ULC5); experiment: Inhibition of recombinant human ACSL5 assessed as reduction in […] prodution incubated for 90 mins in presence of Coenzyme A, ATP and MgCl2 by MALDI-TOF MS analysis
T2 sequence (Q9ULC5 whole entry): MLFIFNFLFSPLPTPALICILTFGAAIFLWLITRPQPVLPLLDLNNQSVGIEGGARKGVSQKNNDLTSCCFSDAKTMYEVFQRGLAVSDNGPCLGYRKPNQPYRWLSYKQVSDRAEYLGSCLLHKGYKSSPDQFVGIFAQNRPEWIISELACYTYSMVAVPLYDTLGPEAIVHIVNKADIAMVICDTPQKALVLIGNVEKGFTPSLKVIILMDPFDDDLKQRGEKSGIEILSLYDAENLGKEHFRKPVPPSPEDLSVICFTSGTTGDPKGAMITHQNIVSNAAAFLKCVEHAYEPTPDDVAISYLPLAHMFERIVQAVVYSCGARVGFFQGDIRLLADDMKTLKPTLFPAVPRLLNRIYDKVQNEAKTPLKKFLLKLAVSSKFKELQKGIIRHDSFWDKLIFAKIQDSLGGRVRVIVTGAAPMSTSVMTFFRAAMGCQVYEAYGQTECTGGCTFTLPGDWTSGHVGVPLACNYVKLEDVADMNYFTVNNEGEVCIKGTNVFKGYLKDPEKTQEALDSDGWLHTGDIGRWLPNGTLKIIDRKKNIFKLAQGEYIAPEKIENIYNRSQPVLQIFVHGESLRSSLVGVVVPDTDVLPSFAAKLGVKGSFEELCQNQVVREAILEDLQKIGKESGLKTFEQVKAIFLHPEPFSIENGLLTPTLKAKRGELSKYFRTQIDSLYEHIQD

[13] = Tmax in rat at 1 mg/kg, po; type: ADME, organism-based; settings: in vivo

Cytochrome P450 3A4, sequence (P08684 whole entry): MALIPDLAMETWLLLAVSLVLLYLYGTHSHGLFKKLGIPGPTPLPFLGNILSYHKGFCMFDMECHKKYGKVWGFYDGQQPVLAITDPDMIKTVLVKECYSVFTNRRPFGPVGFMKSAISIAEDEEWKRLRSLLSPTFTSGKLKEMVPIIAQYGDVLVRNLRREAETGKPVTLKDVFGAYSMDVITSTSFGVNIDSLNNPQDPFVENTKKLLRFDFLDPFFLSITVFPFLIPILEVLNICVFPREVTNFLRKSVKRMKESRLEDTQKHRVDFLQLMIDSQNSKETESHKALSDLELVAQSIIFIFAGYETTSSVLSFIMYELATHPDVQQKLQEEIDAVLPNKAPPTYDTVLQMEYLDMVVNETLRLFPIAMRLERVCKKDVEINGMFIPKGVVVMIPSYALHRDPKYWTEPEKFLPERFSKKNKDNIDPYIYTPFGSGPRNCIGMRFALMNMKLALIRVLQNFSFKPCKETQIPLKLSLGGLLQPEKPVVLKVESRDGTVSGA
Fatty acid CoA ligase Acsl3, sequence (O95573 whole entry): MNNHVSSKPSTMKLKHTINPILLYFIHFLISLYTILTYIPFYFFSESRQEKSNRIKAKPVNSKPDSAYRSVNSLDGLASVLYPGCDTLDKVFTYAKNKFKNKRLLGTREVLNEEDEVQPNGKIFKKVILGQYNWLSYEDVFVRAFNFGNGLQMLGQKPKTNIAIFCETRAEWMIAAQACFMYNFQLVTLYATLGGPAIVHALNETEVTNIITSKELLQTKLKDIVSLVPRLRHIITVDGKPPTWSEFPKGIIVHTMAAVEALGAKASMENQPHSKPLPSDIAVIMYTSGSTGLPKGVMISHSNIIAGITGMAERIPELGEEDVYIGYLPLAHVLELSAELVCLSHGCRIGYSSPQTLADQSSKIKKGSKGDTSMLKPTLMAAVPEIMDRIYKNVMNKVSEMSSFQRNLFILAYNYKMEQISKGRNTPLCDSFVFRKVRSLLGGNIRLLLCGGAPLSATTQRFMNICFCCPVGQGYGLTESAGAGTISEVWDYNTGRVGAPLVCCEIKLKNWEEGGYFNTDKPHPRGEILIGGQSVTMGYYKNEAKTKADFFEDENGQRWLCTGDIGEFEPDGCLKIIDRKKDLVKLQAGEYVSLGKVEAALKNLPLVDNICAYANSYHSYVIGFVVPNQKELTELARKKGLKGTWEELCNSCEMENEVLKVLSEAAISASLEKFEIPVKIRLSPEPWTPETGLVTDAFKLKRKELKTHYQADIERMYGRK
Cytochrome P450 2C9, sequence (P11712 whole entry): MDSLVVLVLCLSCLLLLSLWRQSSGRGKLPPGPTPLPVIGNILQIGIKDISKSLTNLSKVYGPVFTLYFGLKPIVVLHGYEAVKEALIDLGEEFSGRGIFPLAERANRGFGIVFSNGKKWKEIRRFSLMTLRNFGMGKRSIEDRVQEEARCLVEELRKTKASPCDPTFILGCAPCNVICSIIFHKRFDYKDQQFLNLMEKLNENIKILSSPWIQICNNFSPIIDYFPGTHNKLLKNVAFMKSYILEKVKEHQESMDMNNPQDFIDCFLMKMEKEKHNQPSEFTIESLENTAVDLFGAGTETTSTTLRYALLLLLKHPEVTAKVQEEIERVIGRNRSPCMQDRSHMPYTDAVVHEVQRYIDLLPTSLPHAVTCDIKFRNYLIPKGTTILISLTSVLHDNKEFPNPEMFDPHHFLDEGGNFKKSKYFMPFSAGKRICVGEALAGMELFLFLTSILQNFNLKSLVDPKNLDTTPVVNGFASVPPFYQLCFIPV
Long-chain-fatty-acid--CoA ligase 4, sequence (O60488 whole entry): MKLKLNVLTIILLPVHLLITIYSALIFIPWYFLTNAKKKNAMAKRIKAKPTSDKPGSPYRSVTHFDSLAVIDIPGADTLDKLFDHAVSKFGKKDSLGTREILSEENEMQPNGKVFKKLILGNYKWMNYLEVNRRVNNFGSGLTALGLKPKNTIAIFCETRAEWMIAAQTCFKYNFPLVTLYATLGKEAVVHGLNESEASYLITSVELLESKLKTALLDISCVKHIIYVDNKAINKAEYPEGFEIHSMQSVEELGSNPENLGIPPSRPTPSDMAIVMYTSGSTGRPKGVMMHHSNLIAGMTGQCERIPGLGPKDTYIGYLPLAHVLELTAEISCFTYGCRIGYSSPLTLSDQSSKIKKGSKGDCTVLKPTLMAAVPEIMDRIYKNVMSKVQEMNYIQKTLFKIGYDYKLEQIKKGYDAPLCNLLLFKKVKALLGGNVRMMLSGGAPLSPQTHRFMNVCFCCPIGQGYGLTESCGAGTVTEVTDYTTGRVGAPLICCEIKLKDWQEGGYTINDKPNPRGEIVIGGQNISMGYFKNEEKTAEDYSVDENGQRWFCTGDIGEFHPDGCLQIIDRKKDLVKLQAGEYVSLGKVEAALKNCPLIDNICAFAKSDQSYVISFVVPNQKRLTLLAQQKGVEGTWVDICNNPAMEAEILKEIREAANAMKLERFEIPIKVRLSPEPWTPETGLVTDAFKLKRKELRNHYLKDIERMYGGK

- IC50 (Cytochrome P450 2C9): > 20 µM
- solubility [1]: 8.6 µg/mL (≈ 22.7 µM)
- remaining at 0.5 h [2]: 93%
- IC50 [3]: > 200 µM
- solubility [4]: 24 µg/mL (≈ 63.4 µM)
- remaining at 0.5 h [5]: 96%
- clearance [6]: 1.75 mL/min/kg
- IC50 [8]: 0.03 µM
- IC50 [9]: > 200 µM
- bioavailability [10]: 119%
- remaining at 0.5 h [11]: 99%
- IC50 (Cytochrome P450 3A4): > 20 µM
- IC50 [12]: > 200 µM
- Tmax [13]: 2.5 h
Structure (SMILES): Cc1cccc(Cc2nc3cc(O[C@H]4CC[C@@H](C(=O)O)CC4)ccc3n2C)c1
- IC30 [7]: 0.039 µM
- inhibition (Mus musculus): Dose-dependent effect
